Test results: the supplement of paper PMC11061612

Legend:
Test in all cases: combination Emax (second highest fraction inhibited in the dose matrix, 72 h); higher = more inhibition; extreme values may be limits of the assay
[1] = tested on: IST-MES1 (Mesothelioma)
In short: (§1)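 Bliss excess equals the observed combination effect minus the expected value EA + EB − EA·EB, where EA and EB are the effects of each agent alone. Combination Emax is the second-highest inhibition within the matrix. Inhibition was scaled from CellTiter-Glo 2.0 luminescence, with 0 set by vehicle wells and 1 by blank wells, after 72 hours of two-drug dosing of cells plated in 1536-well plates.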

[2] = tested on: VAL (B-Cell Non-Hodgkin's Lymphoma)
In short: as §1

[3] = tested on: SK-PN-DW (Other Solid Carcinomas)
In short: as §1

[4] = tested on: MFE-280 (Endometrial Carcinoma)
In short: as §1

[5] = tested on: SK-MEL-2 (Melanoma)
In short: as §1

[6] = tested on: NCI-H2342 (Lung Adenocarcinoma)
In short: as §1

[7] = tested on: L-1236 (Hodgkin's Lymphoma)
In short: as §1

[8] = tested on: CAL-62 (Thyroid Gland Carcinoma)
In short: as §1

[9] = tested on: MKN45 (Gastric Carcinoma)
In short: as §1

[10] = tested on: PSN1 (Pancreatic Carcinoma)
In short: as §1

[11] = tested on: REH (B-Lymphoblastic Leukemia)
In short: as §1

[12] = tested on: PC-3_[JPC-3] (Lung Adenocarcinoma)
In short: as §1

[13] = tested on: PANC-03-27 (Pancreatic Carcinoma)
In short: as §1

[14] = tested on: SHP-77 (Small Cell Lung Carcinoma)
In short: as §1

[15] = tested on: HSC-39 (Gastric Carcinoma)
In short: as §1

[16] = tested on: RKN (Other Solid Carcinomas)
In short: as §1

[17] = tested on: OVMIU (Ovarian Carcinoma)
In short: as §1

[18] = tested on: LK-2 (Squamous Cell Lung Carcinoma)
In short: as §1

[19] = tested on: TE-8 (Esophageal Squamous Cell Carcinoma)
In short: as §1

[20] = tested on: NB12 (Neuroblastoma)
In short: as §1

CN(CCO)CC[C@H](CSc1ccccc1)Nc1ccc(S(=O)(=O)NC(=O)c2ccc(N3CCC([C@@H](O)c4ccccc4-c4ccc(Cl)cc4)CC3)cc2)cc1S(=O)(=O)C(F)(F)F [AZD4320] + Nc1ccn([C@@H]2O[C@H](CO)[C@@H](O)C2(F)F)c(=O)n1 [Gemcitabine] (first compound max 1 µM, 7x7, partner max 0.3 µM)
combination Emax [1]: 0.8
combination Emax [2]: 1
combination Emax [3]: 0.165
combination Emax [4]: 0.8
combination Emax [5]: 0.0969
combination Emax [6]: 0.403
combination Emax [7]: 1
combination Emax [8]: 0.911
combination Emax [9]: 0.582
combination Emax [10]: 0.885
combination Emax [11]: 1
combination Emax [12]: 0.675
combination Emax [13]: 0.737
combination Emax [14]: 0.549
combination Emax [15]: 0.869
combination Emax [16]: 0.275
combination Emax [17]: 0.596
combination Emax [18]: 0.916
combination Emax [19]: 0.57
combination Emax [20]: 1
